How the values were obtained:
Type in all cases: binding
[1] = molecular target: T1, kinases (KINOMEscan panel) (Homo sapiens, UniProt Q9C098); settings: kinase DCLK3; NEW KINOMEscan
T1 sequence (Q9C098 1-648): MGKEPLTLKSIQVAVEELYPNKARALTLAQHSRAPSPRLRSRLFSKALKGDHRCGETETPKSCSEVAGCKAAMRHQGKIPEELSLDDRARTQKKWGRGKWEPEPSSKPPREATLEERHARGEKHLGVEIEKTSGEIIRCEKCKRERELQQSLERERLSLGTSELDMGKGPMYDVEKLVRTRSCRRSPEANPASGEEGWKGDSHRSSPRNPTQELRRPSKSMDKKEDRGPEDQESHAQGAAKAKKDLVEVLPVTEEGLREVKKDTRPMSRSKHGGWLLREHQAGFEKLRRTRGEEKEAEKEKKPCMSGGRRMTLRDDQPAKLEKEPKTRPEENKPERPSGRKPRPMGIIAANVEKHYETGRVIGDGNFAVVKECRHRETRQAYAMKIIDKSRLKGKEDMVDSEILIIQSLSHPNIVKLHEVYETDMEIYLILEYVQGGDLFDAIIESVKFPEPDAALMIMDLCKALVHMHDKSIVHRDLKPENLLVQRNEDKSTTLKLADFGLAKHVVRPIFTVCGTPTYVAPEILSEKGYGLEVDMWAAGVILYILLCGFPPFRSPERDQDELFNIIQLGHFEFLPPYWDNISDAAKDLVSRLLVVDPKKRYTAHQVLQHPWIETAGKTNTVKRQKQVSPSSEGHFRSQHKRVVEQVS

[2] = molecular target: kinases (KINOMEscan panel) (Homo sapiens, UniProt P27037); settings: ACVR2A; NEW KINOMEscan
[3] = molecular target: kinases (KINOMEscan panel) (Homo sapiens, UniProt P06213); settings: kinase INSR; NEW KINOMEscan
[4] = molecular target: kinases (KINOMEscan panel) (Homo sapiens, UniProt Q9UM73); settings: kinase ALK; NEW KINOMEscan
[5] = molecular target: kinases (KINOMEscan panel) (Homo sapiens, UniProt P43405); settings: SYK; NEW KINOMEscan
[6] = molecular target: kinases (KINOMEscan panel) (Homo sapiens, UniProt P35916); settings: FLT4; NEW KINOMEscan
[7] = molecular target: T2, kinases (KINOMEscan panel) (Homo sapiens, UniProt Q9Y616); settings: IRAK3; NEW KINOMEscan
T2 sequence (Q9Y616 1-596): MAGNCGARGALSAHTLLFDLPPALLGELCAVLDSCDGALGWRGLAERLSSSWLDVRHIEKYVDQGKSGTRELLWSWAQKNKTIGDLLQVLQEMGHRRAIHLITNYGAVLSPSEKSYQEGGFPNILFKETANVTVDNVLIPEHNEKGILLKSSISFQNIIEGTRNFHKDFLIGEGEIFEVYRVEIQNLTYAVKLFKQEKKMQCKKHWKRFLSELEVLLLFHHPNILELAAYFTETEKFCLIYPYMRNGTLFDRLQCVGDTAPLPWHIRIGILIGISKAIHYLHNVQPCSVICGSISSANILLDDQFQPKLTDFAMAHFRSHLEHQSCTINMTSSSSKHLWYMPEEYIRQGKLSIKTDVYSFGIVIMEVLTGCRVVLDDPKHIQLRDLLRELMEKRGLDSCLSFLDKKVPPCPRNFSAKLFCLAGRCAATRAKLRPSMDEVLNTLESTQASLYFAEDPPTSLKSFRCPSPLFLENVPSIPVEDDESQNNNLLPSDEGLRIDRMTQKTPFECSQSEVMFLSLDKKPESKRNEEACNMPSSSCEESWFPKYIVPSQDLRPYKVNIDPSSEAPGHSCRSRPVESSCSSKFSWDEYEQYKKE

[8] = molecular target: T3, kinases (KINOMEscan panel) (Homo sapiens, UniProt Q8IWQ3); settings: kinase BRSK2; NEW KINOMEscan
T3 sequence (Q8IWQ3 1-736): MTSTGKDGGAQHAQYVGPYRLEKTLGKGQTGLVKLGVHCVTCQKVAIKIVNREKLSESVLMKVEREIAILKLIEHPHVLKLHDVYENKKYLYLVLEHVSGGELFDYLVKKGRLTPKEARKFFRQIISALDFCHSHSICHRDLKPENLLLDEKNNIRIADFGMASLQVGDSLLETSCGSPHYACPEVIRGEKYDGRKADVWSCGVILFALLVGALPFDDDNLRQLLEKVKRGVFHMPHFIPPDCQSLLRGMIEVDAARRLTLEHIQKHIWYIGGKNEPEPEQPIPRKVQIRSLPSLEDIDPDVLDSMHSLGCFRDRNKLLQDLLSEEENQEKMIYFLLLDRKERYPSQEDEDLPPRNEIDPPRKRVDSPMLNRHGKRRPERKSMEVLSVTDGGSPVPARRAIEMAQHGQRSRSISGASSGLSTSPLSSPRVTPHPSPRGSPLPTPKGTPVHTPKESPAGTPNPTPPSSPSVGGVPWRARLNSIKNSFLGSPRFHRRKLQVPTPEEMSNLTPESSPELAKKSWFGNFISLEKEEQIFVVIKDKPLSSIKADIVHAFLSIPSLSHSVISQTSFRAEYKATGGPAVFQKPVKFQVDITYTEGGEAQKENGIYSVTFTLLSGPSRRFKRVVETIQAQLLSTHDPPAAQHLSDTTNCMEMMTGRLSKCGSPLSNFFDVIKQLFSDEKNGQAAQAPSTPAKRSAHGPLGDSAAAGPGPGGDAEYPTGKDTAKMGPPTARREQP

kinases (KINOMEscan panel) (Homo sapiens, UniProt P06213), sequence (P06213 28-1382): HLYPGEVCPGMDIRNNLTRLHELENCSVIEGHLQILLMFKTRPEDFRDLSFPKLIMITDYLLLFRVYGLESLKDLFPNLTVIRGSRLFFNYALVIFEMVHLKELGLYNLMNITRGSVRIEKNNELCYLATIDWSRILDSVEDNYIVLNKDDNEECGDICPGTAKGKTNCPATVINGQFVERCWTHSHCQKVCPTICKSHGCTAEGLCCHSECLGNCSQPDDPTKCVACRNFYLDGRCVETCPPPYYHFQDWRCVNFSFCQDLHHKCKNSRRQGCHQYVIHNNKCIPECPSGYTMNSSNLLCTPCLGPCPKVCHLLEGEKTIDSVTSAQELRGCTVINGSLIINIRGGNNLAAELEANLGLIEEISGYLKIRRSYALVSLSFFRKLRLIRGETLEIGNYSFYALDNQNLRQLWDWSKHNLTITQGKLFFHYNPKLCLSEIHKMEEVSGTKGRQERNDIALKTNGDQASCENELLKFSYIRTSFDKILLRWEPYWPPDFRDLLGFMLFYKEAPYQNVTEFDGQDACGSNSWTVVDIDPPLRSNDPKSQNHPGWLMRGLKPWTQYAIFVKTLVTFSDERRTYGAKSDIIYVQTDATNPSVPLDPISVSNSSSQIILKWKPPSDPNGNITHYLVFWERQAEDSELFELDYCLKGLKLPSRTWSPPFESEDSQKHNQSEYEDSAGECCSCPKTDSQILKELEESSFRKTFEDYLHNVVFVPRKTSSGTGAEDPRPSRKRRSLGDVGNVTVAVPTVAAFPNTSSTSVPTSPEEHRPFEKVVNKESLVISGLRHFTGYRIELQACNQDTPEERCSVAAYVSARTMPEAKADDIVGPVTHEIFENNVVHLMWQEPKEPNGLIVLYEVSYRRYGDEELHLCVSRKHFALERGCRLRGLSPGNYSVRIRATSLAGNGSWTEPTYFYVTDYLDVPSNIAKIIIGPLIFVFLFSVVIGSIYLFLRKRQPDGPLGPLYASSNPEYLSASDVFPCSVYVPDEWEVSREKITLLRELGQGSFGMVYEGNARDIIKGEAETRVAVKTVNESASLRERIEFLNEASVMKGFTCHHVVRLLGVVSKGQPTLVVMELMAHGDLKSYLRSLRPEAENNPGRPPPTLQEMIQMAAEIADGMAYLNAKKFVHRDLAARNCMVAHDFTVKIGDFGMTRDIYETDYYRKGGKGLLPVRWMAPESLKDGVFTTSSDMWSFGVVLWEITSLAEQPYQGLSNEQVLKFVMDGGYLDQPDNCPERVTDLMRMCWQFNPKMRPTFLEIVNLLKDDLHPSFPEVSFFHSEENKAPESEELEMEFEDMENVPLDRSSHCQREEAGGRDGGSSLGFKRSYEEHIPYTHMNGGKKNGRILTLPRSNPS
kinases (KINOMEscan panel) (Homo sapiens, UniProt P35916), sequence (P35916 25-1363): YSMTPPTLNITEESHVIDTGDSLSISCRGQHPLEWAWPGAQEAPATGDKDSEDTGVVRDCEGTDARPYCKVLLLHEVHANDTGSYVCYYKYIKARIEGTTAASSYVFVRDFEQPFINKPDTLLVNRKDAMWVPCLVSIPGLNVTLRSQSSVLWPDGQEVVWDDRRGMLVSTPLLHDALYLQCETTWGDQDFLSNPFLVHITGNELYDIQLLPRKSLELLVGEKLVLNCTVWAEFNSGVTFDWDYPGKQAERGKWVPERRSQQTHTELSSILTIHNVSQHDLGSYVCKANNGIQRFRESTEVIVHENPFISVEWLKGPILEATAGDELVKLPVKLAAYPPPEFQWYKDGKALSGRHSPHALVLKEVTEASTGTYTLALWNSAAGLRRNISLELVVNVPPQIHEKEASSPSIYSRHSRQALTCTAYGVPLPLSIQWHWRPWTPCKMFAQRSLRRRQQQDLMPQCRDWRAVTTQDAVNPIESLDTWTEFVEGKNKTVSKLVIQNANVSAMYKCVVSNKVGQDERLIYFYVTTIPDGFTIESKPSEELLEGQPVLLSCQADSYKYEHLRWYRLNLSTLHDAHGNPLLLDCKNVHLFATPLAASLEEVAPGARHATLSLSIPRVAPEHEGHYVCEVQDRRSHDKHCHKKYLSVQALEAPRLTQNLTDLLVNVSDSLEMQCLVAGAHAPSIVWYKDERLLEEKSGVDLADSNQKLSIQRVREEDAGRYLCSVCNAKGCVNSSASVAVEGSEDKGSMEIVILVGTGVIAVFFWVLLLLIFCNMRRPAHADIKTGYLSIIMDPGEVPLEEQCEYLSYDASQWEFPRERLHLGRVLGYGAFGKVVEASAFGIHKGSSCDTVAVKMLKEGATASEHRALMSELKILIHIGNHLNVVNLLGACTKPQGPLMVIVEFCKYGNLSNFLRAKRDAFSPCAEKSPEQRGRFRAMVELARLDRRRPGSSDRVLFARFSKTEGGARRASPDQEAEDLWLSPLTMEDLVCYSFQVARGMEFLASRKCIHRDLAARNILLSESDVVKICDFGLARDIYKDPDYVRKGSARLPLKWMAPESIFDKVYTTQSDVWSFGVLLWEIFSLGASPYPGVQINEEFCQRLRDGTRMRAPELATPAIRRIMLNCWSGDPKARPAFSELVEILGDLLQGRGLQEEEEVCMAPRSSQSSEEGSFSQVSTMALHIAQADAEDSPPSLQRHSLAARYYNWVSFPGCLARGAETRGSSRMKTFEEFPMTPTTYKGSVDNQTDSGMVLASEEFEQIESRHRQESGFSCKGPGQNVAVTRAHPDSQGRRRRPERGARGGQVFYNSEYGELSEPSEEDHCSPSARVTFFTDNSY
kinases (KINOMEscan panel) (Homo sapiens, UniProt P27037), sequence (P27037 20-513): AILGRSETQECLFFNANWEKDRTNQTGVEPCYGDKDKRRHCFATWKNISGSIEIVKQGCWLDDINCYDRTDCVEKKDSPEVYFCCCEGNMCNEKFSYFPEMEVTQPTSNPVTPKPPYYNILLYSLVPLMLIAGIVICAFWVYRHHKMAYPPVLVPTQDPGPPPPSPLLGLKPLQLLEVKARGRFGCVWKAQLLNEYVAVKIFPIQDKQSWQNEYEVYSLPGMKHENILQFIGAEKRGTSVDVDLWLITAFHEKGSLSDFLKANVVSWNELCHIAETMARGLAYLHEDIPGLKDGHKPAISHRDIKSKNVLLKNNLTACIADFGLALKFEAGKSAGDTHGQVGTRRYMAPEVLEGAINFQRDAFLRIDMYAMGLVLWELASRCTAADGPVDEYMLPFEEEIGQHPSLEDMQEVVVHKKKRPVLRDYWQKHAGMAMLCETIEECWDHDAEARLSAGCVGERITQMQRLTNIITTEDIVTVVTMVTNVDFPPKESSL
kinases (KINOMEscan panel) (Homo sapiens, UniProt Q9UM73), sequence (Q9UM73 19-1620): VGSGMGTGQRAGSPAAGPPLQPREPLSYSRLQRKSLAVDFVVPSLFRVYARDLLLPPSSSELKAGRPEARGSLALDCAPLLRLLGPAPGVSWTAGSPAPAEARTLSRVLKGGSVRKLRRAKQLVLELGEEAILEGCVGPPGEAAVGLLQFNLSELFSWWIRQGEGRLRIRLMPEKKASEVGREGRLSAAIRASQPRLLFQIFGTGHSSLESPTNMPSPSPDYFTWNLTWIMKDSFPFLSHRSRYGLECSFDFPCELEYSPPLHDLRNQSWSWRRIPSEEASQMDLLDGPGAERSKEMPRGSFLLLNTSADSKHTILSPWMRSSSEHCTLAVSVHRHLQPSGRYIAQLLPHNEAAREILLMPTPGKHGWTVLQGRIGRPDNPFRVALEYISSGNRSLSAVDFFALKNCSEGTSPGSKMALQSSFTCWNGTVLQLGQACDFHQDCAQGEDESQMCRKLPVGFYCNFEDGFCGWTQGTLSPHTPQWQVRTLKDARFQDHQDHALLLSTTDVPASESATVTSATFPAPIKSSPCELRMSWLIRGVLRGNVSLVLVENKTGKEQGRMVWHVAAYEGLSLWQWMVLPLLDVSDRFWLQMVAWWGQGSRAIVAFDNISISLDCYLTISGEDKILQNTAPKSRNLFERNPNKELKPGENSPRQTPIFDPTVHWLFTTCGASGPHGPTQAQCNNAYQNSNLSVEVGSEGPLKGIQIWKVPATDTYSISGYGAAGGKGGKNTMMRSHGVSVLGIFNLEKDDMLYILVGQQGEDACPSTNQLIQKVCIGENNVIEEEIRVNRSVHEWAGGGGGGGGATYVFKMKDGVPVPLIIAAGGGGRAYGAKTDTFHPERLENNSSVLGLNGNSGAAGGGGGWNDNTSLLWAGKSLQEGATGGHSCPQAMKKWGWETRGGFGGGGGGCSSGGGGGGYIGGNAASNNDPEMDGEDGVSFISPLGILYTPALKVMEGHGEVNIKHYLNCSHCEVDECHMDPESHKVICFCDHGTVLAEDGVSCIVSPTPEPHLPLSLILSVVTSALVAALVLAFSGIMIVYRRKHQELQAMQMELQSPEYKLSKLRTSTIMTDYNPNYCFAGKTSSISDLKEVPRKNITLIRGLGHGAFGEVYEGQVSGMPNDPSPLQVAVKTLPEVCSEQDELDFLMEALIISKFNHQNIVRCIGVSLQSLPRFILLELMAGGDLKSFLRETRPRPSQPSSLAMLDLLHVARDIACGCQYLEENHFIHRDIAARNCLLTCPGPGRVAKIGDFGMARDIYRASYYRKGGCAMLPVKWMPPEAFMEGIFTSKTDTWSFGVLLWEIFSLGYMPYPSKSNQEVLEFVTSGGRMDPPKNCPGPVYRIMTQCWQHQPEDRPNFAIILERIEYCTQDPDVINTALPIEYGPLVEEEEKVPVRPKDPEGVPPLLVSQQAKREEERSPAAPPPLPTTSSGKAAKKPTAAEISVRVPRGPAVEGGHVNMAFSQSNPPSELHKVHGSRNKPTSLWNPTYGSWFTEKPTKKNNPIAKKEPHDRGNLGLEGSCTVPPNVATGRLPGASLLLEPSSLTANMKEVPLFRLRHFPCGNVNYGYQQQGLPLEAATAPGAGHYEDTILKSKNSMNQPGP

Cc1cccc(-c2nc(N(C)c3ccc4ncsc4c3)c3ccccc3n2)n1 [NK-161]
KINOMEscan DCLK3 [1]: 14 | KINOMEscan ACVR2A [2]: 0 | KINOMEscan INSR [3]: 2 | KINOMEscan ALK [4]: 9 | KINOMEscan SYK [5]: 6 | KINOMEscan FLT4 [6]: 1 | KINOMEscan IRAK3 [7]: 7 | KINOMEscan BRSK2 [8]: 12

Cc1cccc(-c2nc(Nc3ccc4nn(C)cc4c3)c3ccccc3n2)n1 [NK167]
KINOMEscan DCLK3 [1]: 10 | KINOMEscan ACVR2A [2]: 0 | KINOMEscan INSR [3]: 0 | KINOMEscan ALK [4]: 22 | KINOMEscan SYK [5]: 0 | KINOMEscan FLT4 [6]: 0 | KINOMEscan IRAK3 [7]: 0 | KINOMEscan BRSK2 [8]: 9

Source: article PMC9851200, “Multiparameter phenotypic screening for endogenous TFEB and TFE3 translocation identifies novel chemical series modulating lysosome function” (Autophagy, 2022)
